Measured values as given in patent publication US20230118142A1, “AGENTS FOR USE IN THE TREATMENT OF TISSUE DAMAGE” (UCL BUSINESS LTD, priority 2020, published 2023).

Legend:
CRP [1] = target: T1, CRP (Homo sapiens, UniProt P02741); experiment: Roche immunoturbidimetric assay: pure CRP; assay type: binding; design: The final concentrations were 0.73 μM native pentameric CRP; from tissue; conditions: pure CRP in TC buffer; read-out: IC50 (μM), SD; inhibition of Roche CRP immunoreactivity
T1 sequence (P02741 19-224): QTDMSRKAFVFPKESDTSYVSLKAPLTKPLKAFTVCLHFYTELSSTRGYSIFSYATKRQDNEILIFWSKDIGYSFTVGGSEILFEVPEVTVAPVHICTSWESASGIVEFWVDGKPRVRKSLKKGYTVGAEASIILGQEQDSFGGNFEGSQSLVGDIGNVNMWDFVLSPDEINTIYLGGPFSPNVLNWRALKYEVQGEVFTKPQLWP
In short: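 Purified human CRP (final 0.73 μM pentamer) incubated 1 h at 37° C with ligand (final 625-0.03 μM) in TC buffer. Remaining CRP quantified by Roche microparticle-enhanced immunoturbidimetric assay, one antibody recognising the ligand-binding B-face, as % of buffer control; EC50 from 4-parameter logistic fit.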

CRP [2] = target: T1, CRP; experiment: In vivo clearance of CRP/ligand complexes generated in vivo in mice; design: The final concentrations were 0.73 μM native pentameric CRP; from tissue; conditions: i.v. bolus 18 h after s.c. CRP (1 mg)
Procedure: (i) Two groups of 8 wild-type C57BL/6 mice (male; 23-27 weeks old) were used: group 1 (control) and group 2 (treated).
(ii) Both groups of animals were given 200 μl of human CRP (5 mg/ml in azide-free TC buffer) subcutaneously on day 1.
(iii) On day 2 (+18 h), control animals were given a 200 μl intravenous bolus of TC buffer. Treated animals were given a 200 μl iv bolus of ligand (prepared at 5 mg/ml in TC buffer).
(iv) One timed blood sample and a terminal blood sample were collected from each mouse into heparinised tubes and weighed. This generated data in quadruplicate at 4 time points, normally 30, 60, 120 and 360 minutes.
(v) ^125I radiolabel was measured (Perkin Elmer Wizard; protocol #1) in whole blood to quantify total CRP. In some cases, electroimmunoassay as above was also used to determine total CRP concentration.
(vi) Plasma was prepared and free CRP determined by Roche immunoassay.
Subcutaneous injection of human CRP provided circulating CRP concentrations with which to test for effects of our ligands in vivo. (Table 4).

[3] = In vivo clearance of ligand; conditions: male, C57BL/6, mouse, plasma, 0.5 mg; mice, intravenous; read-out: plasma t1/2 of ligand
Procedure: (i) Ligand (0.5 mg/animal) dissolved in PBS or saline (200 μl) was injected intravenously into the tail vein of six male; 23-27 week old wild-type C57BL/6 mice. Up to two blood samples plus a terminal sample per mouse were collected at each time point up to 180 minutes.
(ii) Serum was prepared and ˜200 ng of internal standard (either ^2H4-BPC6 or BPC9) added. Serum proteins were precipitated with 4 volumes of either ice cold methanol or acetonitrile. The supernatant was dried under vacuum and re-dissolved in 0.1% v/v aqueous formic acid. (iii) Samples were chromatographed on a Phenomenex Aqua column using a gradient of 0.1% v/v formic acid-60% v/v acetonitrile in formic acid, and the eluate passed into the positive ion source of a Quattro II triple quadrupole mass spectrometer. The MRM transitions used were m/z 449.3→390.2 and 453.→394.2 (BPC6) and m/z 477.3→418.3, […] (BPC8).
(iv) Ligand concentrations were measured against an extracted standard curve and were plotted using Sigmaplot (v14) and fitted to a 2-parameter exponential decay.

CRP [4] = target: T1, CRP; experiment: Size exclusion chromatography of CRP/ligand cross linking; assay type: binding; design: The final concentrations were 0.73 μM native pentameric CRP; from tissue

For `O=P(O)(OCCCCCCCCOP(=O)(O)O[C@@H]1CN2CCC1CC2)O[C@@H]1CN2CCC1CC2` [Pk-023, [(3S)-1-azabicyclo[2.2.2]octan-3-yloxy]({[8-({[(3S)-1-azabicyclo[2.2.2]octan-3-yloxy](hydroxy)phosphoryl}oxy)octyl]oxy})phosphinic acid], the IC50 (CRP [1]) was 0.6 µM, the “Effect on detection of circulating CRP in the Roche assay” value (CRP [2]) was “the same as BPC8” and the half-life [3] was roughly 15 min. The Stable to rechromatography (CRP [4]; CRP/ligand complex re-chromatographed in absence of free ligand) was “remained intact and Yes” and the “CRP elution volume from Superdex 200 after pre-incubation with ligand” value (CRP [4]; native CRP pentamer elutes at 13.9 ml) was 12.6 mL.
